This note sets out measurements from US8088805B2, “Inhibitors of histone deacetylase” (MethylGene Inc., priority 2004, dated 2012).

One assay relates to A549 lung cancer cells. Description: Human tumor xenograft in vivo, A549. To be noted: 30 mg/kg ip, mice. The protocol: (§1) Eight to ten week old female BCD1 mice (Taconic Labs, Great Barrington, N.Y.) were injected subcutaneously in the flank area with 2×10^6 preconditioned HCT116 human colorectal carcinoma cells, SW48 colon cancer cells, and A549 lung cancer cells. Preconditioning of these cells was done by a minimum of three consecutive tumor transplantations in the same strain of nude mice. Subsequently, tumor fragments of approximately 30 mgs were excised and implanted subcutaneously in mice, in the left flank area, under Forene anesthesia (Abbott Labs, Geneva, Switzerland). When the tumors reached a mean volume of 100 mm^3, the mice were treated intraperitoneally by daily injection, with a solution of the histone deacetylase inhibitor in DMSO, at a starting dose of 10 mg/kg. The optimal dose of the HDAC inhibitor was established by dose response experiments according to standard protocols. Tumor volume was calculated every second day post infusion according to standard methods (e.g., Meyer et al., Int. J. Cancer 43: 851-856 (1989)).
Background: Xenograft models place foreign cells or tissue in a host animal.

The next assay deals with SW48 colon cancer cells. Kind of assay: Human tumor xenograft in vivo, SW48. To be noted: Mus musculus, 30 mg/kg ip, mice, read-out: % Inhibition (relative to vehicle control) SW48. The method, then:
as §1

The subject of assay [1] is HCT116 human colorectal carcinoma cells. Kind of assay: Human tumor xenograft in vivo, HCT116. The note with it: Mus musculus, HCT-116; 30 mg/kg ip, mice; read-out: % Inhibition (relative to vehicle control) HCT116. The method, then: as §1
Another assay concerns HCT116 cells. Kind of assay: MTT assay. The assay is classed as cell-based. To be noted: Homo sapiens, HCT-116, 72 hours. The method, then:
HCT116 cells (2000/well) were plated into 96-well tissue culture plates one day before compound treatment. Compounds at various concentrations were added to the cells. The cells were incubated for 72 hours at 37° C. in 5% CO2 incubator. MTT (3-[4,5-dimethylthiazol-2-yl]-2,5diphenyl tetrazolium bromide, Sigma) was added at a final concentration of 0.5 mg/ml and incubated with the cells for 4 hours before one volume of solubilization buffer (50% N,N-dimethylformamide, 20% SDS, pH 4.7) was added onto the cultured cells. After overnight incubation, solubilized dye was quantified by colorimetric reading at 570 nM using a reference at 630 nM using an MR700 plate reader (Dynatech Laboratories Inc.). OD values were converted to cell numbers according to a standard growth curve of the relevant cell line. The concentration which reduces cell numbers to 50% of that of solvent treated cells is determined as MTT IC50. In Table 14, “a” indicates activity of ≦0.1 μM, “b” indicates activity of ≦1 μM, and “c” indicates activity of ≦5 μM.
For orientation: Tetrazolium assays rely on reduction of a dye to a coloured formazan, in cell work by metabolically active cells.

The subject of assay [2] is Histone H3 acetylation in T24 human bladder cancer cells. Description: Histone H3 acetylation assay. The note with it: T-24, 16 h, concentration giving 50% of Emax of MS-275, read-out: H3 Ac t24. The format is cell-based. The protocol: T24 human bladder cancer cells growing in culture are incubated with HDAC inhibitors for 16 h. Cell viability is determined by adding 10 μl Alamar Blue (BioSource, DAL1100). Cells are washed once with PBS and fixed with methanol precooled to −20° C. for 10 min. The cells are then washed twice in PBS. The fixed cells are blocked with 50 μl of PBS+0.1% Triton X-100. Cells are probed with rabbit-anti-acetyl-H3 (Upstate #06-599) as the primary antibody and then with goat-anti-rabbit-HRP (Sigma #A-0545) as the secondary antibody. Fluorescence is read by fluorometer at Ex:550, Em:610, Cutoff:590 (Auto PMT, 15 reads/well) after addition of Amplex-Red. Fluorescence signal is normalized against cell viability derived from Alamar Blue. Maximum acetylation signal of MS-275 (fluorescence unit) is measured as Emax. The concentration of compound which gives 50% of Emax is EC50. In Table 14, “x” indicates activity of ≦1 μM, “y” indicates activity of ≦10 μM, and “z” indicates activity of ≦20 μM.

The next assay has as its target Human HDAC-1 (Homo sapiens, UniProt Q13547). Description: HDAC-1 enzymatic inhibition, Assay 2 (Boc-Lys(Ac)-AMC, Fluor-de-Lys). The assay is classed as biochemical. The note with it: Assay 2: Boc-Lys(Ac)-AMC substrate, fluorescence; read-out: HDAC1 IC50. The method, then: Assay 2. The following protocol was also used to assay the compounds of the invention. In the assay, the buffer used was 25 mM HEPES, pH 8.0, 137 mM NaCl, 2.7 mM KCl, 1 mM MgCl2 and the substrate was Boc-Lys(Ac)-AMC in a 50 mM stock solution in DMSO. The enzyme stock solution was 4.08 μg/mL in buffer. The compounds were pre-incubated (2 μl in DMSO diluted to 13 μl in buffer for transfer to assay plate) with enzyme (20 μl of 4.08 μg/ml) for 10 minutes at room temperature (35 μl pre-incubation volume). The mixture was pre-incubated for 5 minutes at room temperature. The reaction was started by bringing the temperature to 37° C. and adding […] substrate. Total reaction volume was 50 μl. The reaction was stopped after 20 minutes by addition of 50 μl developer, prepared as directed by Biomol (Fluor-de-Lys developer, Cat. # KI-105). A plate was incubated in the dark for 10 minutes at room temperature before reading (λEx=360 nm, λEm=470 nm, Cutoff filter at 435 nm).
Assay 1 was used to measure HDAC activity of compounds 10c, 13e, 16d, 26b, 44, 47, 61a, 61b, 63, 134, 138, and 308. Assay 2 was used to measure HDAC activity of compounds 361, 366, 367, 368, 369, 370, 371, 372, 373, 374, 375, 376, 377, and 378. In Table 14, “a” indicates activity of ≦0.1 μM, “b” indicates activity of ≦1 μM, “c” indicates activity of ≦5 μM, and “d” indicates activity of >5 μm. For the H4-Ac T24 EC vs. MS-275 assay in Table 14, “u” indicates less than 1, “v” indicates 1, and “w” indicates greater than 1. For the H3 Ac t24 assay in Table 14, “x” indicates activity of ≦1 μM, “y” indicates activity of ≦10 μM, and “z” indicates activity of ≦20 μM.

Chain of Human HDAC-1 (Q13547 whole entry): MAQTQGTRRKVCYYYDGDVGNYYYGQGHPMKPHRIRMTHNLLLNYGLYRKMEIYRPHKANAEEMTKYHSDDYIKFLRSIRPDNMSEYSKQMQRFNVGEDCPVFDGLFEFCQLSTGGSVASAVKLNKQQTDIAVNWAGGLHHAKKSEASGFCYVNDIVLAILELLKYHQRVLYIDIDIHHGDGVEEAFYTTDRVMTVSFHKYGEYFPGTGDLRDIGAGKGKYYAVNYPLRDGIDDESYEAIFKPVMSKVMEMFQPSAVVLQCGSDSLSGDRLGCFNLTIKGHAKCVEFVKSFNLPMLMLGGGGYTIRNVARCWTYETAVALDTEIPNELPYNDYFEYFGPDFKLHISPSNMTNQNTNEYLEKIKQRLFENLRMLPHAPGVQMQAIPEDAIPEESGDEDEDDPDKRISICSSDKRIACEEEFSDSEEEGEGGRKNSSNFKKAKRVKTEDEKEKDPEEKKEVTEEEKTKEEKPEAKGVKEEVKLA

In the case of `Nc1ccccc1NC(=O)c1ccc(CNc2nccc(-c3ccc(N4CCOCC4)nc3)n2)cc1` [34a, N-(2-Amino-phenyl)-4-{[4-(6-morpholin-4-yl-pyridin-3-yl)-pyrimidin-2-ylamino]-methyl}-benzamide], the “% Inhibition (relative to vehicle control) A549” value in the assay with A549 lung cancer cells came to 67.1%. Further, the inhibition in vivo at 30 mg/kg with SW48 colon cancer cells was 25.5%.

`CC(=O)Nc1ccc(NCc2ccc(C(=O)Nc3ccccc3N)cc2)cn1` [212f, 4-[(6-Acetylamino-pyridin-3-ylamino)-methyl]-N-(2-amino-phenyl)-benzamide]: the inhibition in vivo at 30 mg/kg stood at 65.7% in assay [1] and 32.7% in the assay on SW48 colon cancer cells.

Take `CN(C)CC(=O)Nc1ccc2nc(SCc3ccc(C(=O)Nc4ccccc4N)cc3)sc2c1` [compound 158, N-(2-Amino-phenyl)-4-[6-(2-dimethylamino-acetylamino)-benzothiazol-2-ylsulfanylmethyl]-benzamide]: the “% Inhibition (relative to vehicle control) A549” value in the assay on A549 lung cancer cells is 42.6%. Also, the inhibition in vivo at 30 mg/kg with SW48 colon cancer cells was found to be 43.2%.

In the case of `Nc1ccccc1NC(=O)c1ccc(N2CC[C@H](Oc3cccnc3)C2)cc1` [compound 367, (S)—N-(2-Aminophenyl)-4-(3-(pyridin-3-yloxy)pyrrolidin-1-yl)benzamide], the IC50 with HCT116 cells and at Human HDAC-1 was 100 to 1000 nM in each case. Also, the EC50 in assay [2] was ≤ 10000 nM.

As to `Nc1ccccc1NC(=O)c1ccc(CNc2nccc(-c3ccncc3)n2)cc1` [31b, N-(2-Amino-phenyl)-4-[(4-pyridin-4-yl-pyrimidin-2-ylamino)-methyl]-benzamide], the inhibition in vivo at 30 mg/kg in assay [1] came to 39.4%; in the assay on SW48 colon cancer cells, 47.8%.

With `CN(C)C(=O)c1ccc(-c2ccnc(NCc3ccc(C(=O)Nc4ccccc4N)cc3)n2)cn1` [29a, 5-{2-[4-(2-Amino-phenylcarbamoyl)-benzylamino]-pyrimidin-4-yl}-pyridine-2-carboxylic acid dimethylamide], the “% Inhibition (relative to vehicle control) A549” value in the assay with A549 lung cancer cells amounted to 31.8%. Moreover, in the assay on SW48 colon cancer cells, the inhibition in vivo at 30 mg/kg came out at 70.2%.

Turning to `Cn1cnc2cc(NCc3ccc(C(=O)Nc4ccccc4N)cc3)ccc21` [compound 252, N-(2-Amino-phenyl)-4-[(1-methyl-1H-benzoimidazol-5-ylamino)-methyl]-benzamide], the inhibition in vivo at 30 mg/kg in assay [1] was 70.6%; in the assay on SW48 colon cancer cells it was 25.9%.

Take `Nc1ccccc1NC(=O)c1ccc(N2CC[C@H](Oc3ccc4c(c3)OCO4)C2)cc1` [compound 375, (S)—N-(2-Aminophenyl)-4-(3-(benzo[d][1,3]dioxol-5-yloxy)pyrrolidin-1-yl)benzamide]: the concentration for half-maximal inhibition (IC50) (as a rule, the concentration that gives 50% inhibition) in the assay with HCT116 cells is > 5000 nM; at Human HDAC-1 it was ≤ 100 nM. The EC50 in assay [2] is ≤ 1000 nM.

For `COc1cc(O[C@H]2CCN(c3ccc(C(=O)Nc4ccccc4N)cc3)C2)cc(OC)c1OC` [compound 374, (S)—N-(2-Aminophenyl)-4-(3-(3,4,5-trimethoxyphenoxy)pyrrolidin-1-yl)benzamide], the IC50 in the assay on HCT116 cells is 100 to 1000 nM; on Human HDAC-1, ≤ 100 nM. In assay [2], the EC50 is ≤ 1000 nM.

`Nc1ccccc1NC(=O)c1ccc(CSc2nc3cc(F)c(F)cc3[nH]2)cc1` [compound 194, N-(2-Amino-phenyl)-4-(5,6-difluoro-1H-benzoimidazol-2-ylsulfanylmethyl)-benzamide]: the inhibition in vivo at 30 mg/kg turned out to be 54.5% in assay [1] and 23.1% in the assay on SW48 colon cancer cells.

Turning to `COc1ccc(CCNc2ccnc(NCc3ccc(C(=O)Nc4ccccc4N)cc3)n2)cc1OC` [10a, N-(2-Amino-phenyl)-4-({4-[2-(3,4-dimethoxy-phenyl)-ethylamino]-pyrimidin-2-ylamino}-methyl)-benzamide], the inhibition in vivo at 30 mg/kg was 16.1% in assay [1] and 23% with SW48 colon cancer cells.

For the molecule `COCOC(C)(C)c1ccc(-c2ccnc(NCc3ccc(C(=O)Nc4ccccc4N)cc3)n2)cn1` [58b, N-(2-Amino-phenyl)-4-({4-[6-(1-methoxymethoxy-1-methyl-ethyl)-pyridin-3-yl]-pyrimidin-2-ylamino}-methyl)-benzamide], the inhibition in vivo at 30 mg/kg in assay [1] was determined as 29.4%; in the assay with SW48 colon cancer cells, 34.6%.

For the molecule `Nc1ccccc1NC(=O)c1ccc(CNc2nccc(-c3nccs3)n2)cc1` [26c, N-(2-Amino-phenyl)-4-[(4-thiazol-2-yl-pyrimidin-2-ylamino)-methyl]-benzamide], the results for the inhibition in vivo at 30 mg/kg (in assay [1]; in the assay on SW48 colon cancer cells) were 88% and 89.5%, respectively.

For `Nc1ccccc1NC(=O)c1ccc(N2CC[C@@H](Nc3cccnc3)C2)cc1` [compound 366, (R)—N-(2-Aminophenyl)-4-(3-(pyridin-3-ylamino)pyrrolidin-1-yl)benzamide], the IC50 in the assay on HCT116 cells fell in the range of 1000 to 5000 nM; on Human HDAC-1, 100 to 1000 nM. In assay [2], the EC50 was ≤ 20000 nM.

Turning to `CCC(=O)Nc1sc(Cc2ccc(C(=O)Nc3ccccc3N)cc2)cc1C(N)=O` [compound 296, 5-[4-(2-Amino-phenylcarbamoyl)-benzyl]-2-propionylamino thiophene-3-carboxylic acid amide], the inhibition in vivo at 30 mg/kg in assay [1] worked out at 63.9%; in the assay with SW48 colon cancer cells it was 53.4%.

Turning to `Nc1ccccc1NC(=O)c1ccc(N2CC[C@H](Nc3ccccc3)C2)cc1` [compound 369, (S)—N-(2-Aminophenyl)-4-(3-(phenylamino)pyrrolidin-1-yl)benzamide], the IC50 with HCT116 cells and at Human HDAC-1 was 100 to 1000 nM throughout. Further, the EC50 in assay [2] is ≤ 1000 nM.

With `Nc1ccccc1NC(=O)c1ccc(N2CC[C@H](Nc3cccnc3)C2)cc1` [compound 361, (S)—N-(2-Aminophenyl)-4-(3-(pyridin-3-ylamino)pyrrolidin-1-yl)benzamide], the IC50 is 100 to 1000 nM in the assay with HCT116 cells and ≤ 100 nM on Human HDAC-1. For the same molecule, in assay [2], the EC50 is ≤ 10000 nM.

For the molecule `Nc1ccccc1NC(=O)c1ccc(N2CC[C@H](Sc3ccccn3)C2)cc1` [compound 378, (S)—N-(2-Aminophenyl)-4-(3-(pyridin-2-ylthio)pyrrolidin-1-yl)benzamide], the IC50 in the assay on HCT116 cells and on Human HDAC-1 was 100 to 1000 nM each time. The EC50 in assay [2] is ≤ 10000 nM.

Consider `COc1ccc(NCc2ccc(C(=O)Nc3ccccc3N)cc2)cc1F` [212h, N-(2-Amino-phenyl)-4-[(3-fluoro-4-methoxy-phenylamino)-methyl]-benzamide], for which the “% Inhibition (relative to vehicle control) A549” value in the assay with A549 lung cancer cells turned out to be 54.4%. Further, the inhibition in vivo at 30 mg/kg in the assay on SW48 colon cancer cells amounted to 44%.
